From the NIST ThermoML archive (doi:10.1021/je0601457)

Test: xn = mol fraction of the nth substance listed

Cc1cnccn1 [2-methylpyrazine] + O=C=O
Fluid (supercritical or subcritical phases), Linear displacement technique
Details | mass density [kg/m3]
294.85 K, 5860 kPa, x1 = 0.033 | 869
294.85 K, 6830 kPa, x1 = 0.017 | 749
294.85 K, 7760 kPa, x1 = 0.033 | 904
294.85 K, 8900 kPa, x1 = 0.017 | 777
294.85 K, 13000 kPa, x1 = 0.017 | 821
294.85 K, 13690 kPa, x1 = 0.033 | 969
294.95 K, 2450 kPa, x1 = 0.857 | 935
294.95 K, 3790 kPa, x1 = 0.857 | 942
294.95 K, 6860 kPa, x1 = 0.857 | 947
294.95 K, 11520 kPa, x1 = 0.857 | 950
295.05 K, 3900 kPa, x1 = 0.624 | 948
295.05 K, 7000 kPa, x1 = 0.624 | 952
295.05 K, 9660 kPa, x1 = 0.624 | 956
295.05 K, 14760 kPa, x1 = 0.624 | 965
295.35 K, 5310 kPa, x1 = 0.156 | 908
295.35 K, 7620 kPa, x1 = 0.156 | 910
295.35 K, 9620 kPa, x1 = 0.156 | 911
295.45 K, 5450 kPa, x1 = 0.264 | 901
295.45 K, 7900 kPa, x1 = 0.264 | 911
295.45 K, 12450 kPa, x1 = 0.264 | 926
295.45 K, 16590 kPa, x1 = 0.264 | 934
295.55 K, 6790 kPa, x1 = 0.122 | 998
295.55 K, 8790 kPa, x1 = 0.122 | 1010
295.55 K, 10590 kPa, x1 = 0.122 | 1019
295.55 K, 14410 kPa, x1 = 0.122 | 1036
295.85 K, 7140 kPa, x1 = 0.081 | 779
295.85 K, 9760 kPa, x1 = 0.081 | 781
295.85 K, 13170 kPa, x1 = 0.081 | 781
296.15 K, 7590 kPa, x1 = 0.339 | 964
296.15 K, 10550 kPa, x1 = 0.339 | 969
296.15 K, 16100 kPa, x1 = 0.339 | 976
296.35 K, 6310 kPa, x1 = 0.023 | 607
296.35 K, 6660 kPa, x1 = 0.023 | 614
296.35 K, 8930 kPa, x1 = 0.023 | 642
297.25 K, 5790 kPa, x1 = 0.062 | 854
297.25 K, 7550 kPa, x1 = 0.062 | 873
297.25 K, 9550 kPa, x1 = 0.062 | 894
297.25 K, 12830 kPa, x1 = 0.062 | 914
298.85 K, 6860 kPa, x1 = 0.039 | 804
298.85 K, 8520 kPa, x1 = 0.039 | 831
298.85 K, 11690 kPa, x1 = 0.039 | 873
301.55 K, 7930 kPa, x1 = 0.023 | 578
301.55 K, 10070 kPa, x1 = 0.023 | 604
301.55 K, 11520 kPa, x1 = 0.023 | 620
304.15 K, 6790 kPa, x1 = 0.156 | 795
304.15 K, 8030 kPa, x1 = 0.156 | 905
304.15 K, 10210 kPa, x1 = 0.156 | 906
304.15 K, 12210 kPa, x1 = 0.156 | 911
304.45 K, 7140 kPa, x1 = 0.091 | 913
304.45 K, 7830 kPa, x1 = 0.122 | 970
304.45 K, 8660 kPa, x1 = 0.091 | 927
304.45 K, 10170 kPa, x1 = 0.091 | 940
304.45 K, 10660 kPa, x1 = 0.122 | 989
304.45 K, 13690 kPa, x1 = 0.122 | 1006
304.55 K, 5690 kPa, x1 = 0.264 | 882
304.55 K, 6660 kPa, x1 = 0.264 | 885
304.55 K, 10380 kPa, x1 = 0.264 | 896
304.55 K, 13620 kPa, x1 = 0.264 | 907
305.05 K, 3620 kPa, x1 = 0.624 | 922
305.05 K, 5000 kPa, x1 = 0.624 | 926
305.05 K, 7480 kPa, x1 = 0.624 | 931
305.05 K, 10860 kPa, x1 = 0.624 | 937
305.05 K, 15480 kPa, x1 = 0.624 | 942
307.45 K, 8340 kPa, x1 = 0.339 | 950
307.45 K, 11280 kPa, x1 = 0.339 | 957
307.45 K, 16170 kPa, x1 = 0.339 | 965
307.55 K, 2720 kPa, x1 = 0.857 | 922
307.55 K, 4900 kPa, x1 = 0.857 | 926
307.55 K, 6860 kPa, x1 = 0.857 | 928
307.55 K, 11550 kPa, x1 = 0.857 | 934
309.15 K, 8070 kPa, x1 = 0.122 | 948
309.15 K, 11140 kPa, x1 = 0.122 | 972
309.15 K, 14720 kPa, x1 = 0.122 | 992
309.95 K, 8520 kPa, x1 = 0.017 | 652
309.95 K, 10170 kPa, x1 = 0.017 | 701
309.95 K, 11590 kPa, x1 = 0.017 | 724
311.75 K, 8520 kPa, x1 = 0.033 | 764
311.75 K, 10790 kPa, x1 = 0.033 | 831
311.75 K, 13310 kPa, x1 = 0.033 | 871
311.75 K, 15760 kPa, x1 = 0.033 | 905
315.25 K, 9690 kPa, x1 = 0.039 | 722
315.25 K, 10690 kPa, x1 = 0.039 | 749
315.25 K, 12660 kPa, x1 = 0.039 | 777
315.25 K, 14660 kPa, x1 = 0.039 | 812
315.45 K, 8620 kPa, x1 = 0.062 | 781
315.45 K, 11210 kPa, x1 = 0.062 | 824
315.45 K, 13170 kPa, x1 = 0.062 | 846
315.45 K, 16310 kPa, x1 = 0.062 | 879
316.45 K, 6030 kPa, x1 = 0.624 | 912
316.45 K, 10030 kPa, x1 = 0.624 | 917
316.45 K, 13210 kPa, x1 = 0.624 | 920
316.45 K, 17280 kPa, x1 = 0.624 | 926
317.55 K, 11280 kPa, x1 = 0.091 | 882
317.55 K, 14550 kPa, x1 = 0.091 | 913
317.55 K, 16520 kPa, x1 = 0.091 | 930
317.85 K, 8520 kPa, x1 = 0.156 | 887
317.85 K, 11140 kPa, x1 = 0.156 | 898
317.85 K, 12310 kPa, x1 = 0.156 | 899
317.95 K, 7340 kPa, x1 = 0.264 | 858
317.95 K, 9000 kPa, x1 = 0.264 | 863
317.95 K, 11830 kPa, x1 = 0.264 | 872
317.95 K, 15410 kPa, x1 = 0.264 | 882
320.75 K, 10340 kPa, x1 = 0.122 | 910
320.75 K, 11760 kPa, x1 = 0.122 | 924
320.75 K, 14380 kPa, x1 = 0.122 | 944
322.95 K, 4760 kPa, x1 = 0.857 | 905
322.95 K, 8520 kPa, x1 = 0.857 | 909
322.95 K, 12620 kPa, x1 = 0.857 | 914
322.95 K, 17030 kPa, x1 = 0.857 | 918
325.15 K, 7000 kPa, x1 = 0.339 | 932
325.15 K, 10590 kPa, x1 = 0.339 | 941
325.15 K, 15280 kPa, x1 = 0.339 | 952
326.65 K, 11620 kPa, x1 = 0.039 | 667
326.65 K, 12280 kPa, x1 = 0.039 | 690
326.65 K, 13620 kPa, x1 = 0.039 | 725
327.35 K, 10790 kPa, x1 = 0.091 | 808
327.35 K, 11520 kPa, x1 = 0.091 | 822
327.35 K, 13340 kPa, x1 = 0.091 | 848
327.35 K, 15830 kPa, x1 = 0.091 | 875
328.75 K, 9900 kPa, x1 = 0.156 | 872
328.75 K, 11000 kPa, x1 = 0.156 | 878
328.75 K, 13900 kPa, x1 = 0.156 | 890
329.15 K, 10450 kPa, x1 = 0.017 | 407
329.15 K, 11930 kPa, x1 = 0.017 | 574

Liquid, linear displacement
Details | mass density [kg/m3]
294.85 K, x1 = 0.017 | 721
294.85 K, x1 = 0.033 | 864
294.95 K, x1 = 0.857 | 930
295.05 K, x1 = 0.624 | 944
295.35 K, x1 = 0.156 | 906
295.45 K, x1 = 0.264 | 883
295.55 K, x1 = 0.122 | 947
295.85 K, x1 = 0.081 | 779
296.15 K, x1 = 0.339 | 928
296.35 K, x1 = 0.023 | 599
297.25 K, x1 = 0.062 | 845
298.85 K, x1 = 0.039 | 787
301.55 K, x1 = 0.023 | 549
304.15 K, x1 = 0.156 | 901
304.45 K, x1 = 0.091 | 901
304.45 K, x1 = 0.122 | 954
304.55 K, x1 = 0.264 | 881
305.05 K, x1 = 0.624 | 919
307.45 K, x1 = 0.339 | 937
307.55 K, x1 = 0.857 | 916
309.15 K, x1 = 0.122 | 934
309.95 K, x1 = 0.017 | 621
311.75 K, x1 = 0.033 | 747
315.25 K, x1 = 0.039 | 682
315.45 K, x1 = 0.062 | 766
316.45 K, x1 = 0.624 | 907
317.55 K, x1 = 0.091 | 841
317.85 K, x1 = 0.156 | 885
317.95 K, x1 = 0.264 | 856
320.75 K, x1 = 0.122 | 890
322.95 K, x1 = 0.857 | 900
325.15 K, x1 = 0.339 | 929
326.65 K, x1 = 0.039 | 595
327.35 K, x1 = 0.091 | 794
328.75 K, x1 = 0.156 | 868
